We go through one molecule from patent US9358249B2, “Use of Pateamine A for the treatment of age-related muscle wasting” (The Regents of the University of California, priority 2008, dated 2016).

In assay [1] the target is T1, eukaryotic initiation factor 4A (eIF4A), yeast (TAP tagged Tif1) (Saccharomyces cerevisiae, UniProt P10081).
T1 construct: We performed proteolysis on yeast cell lysates that had been incubated with resveratrol or ethanol; TAP; endogenous in cells; host or cells: yeast cells (lysate); strain expressing TAP-tagged Tif1 for the western blot
T1 sequence (P10081 1-395): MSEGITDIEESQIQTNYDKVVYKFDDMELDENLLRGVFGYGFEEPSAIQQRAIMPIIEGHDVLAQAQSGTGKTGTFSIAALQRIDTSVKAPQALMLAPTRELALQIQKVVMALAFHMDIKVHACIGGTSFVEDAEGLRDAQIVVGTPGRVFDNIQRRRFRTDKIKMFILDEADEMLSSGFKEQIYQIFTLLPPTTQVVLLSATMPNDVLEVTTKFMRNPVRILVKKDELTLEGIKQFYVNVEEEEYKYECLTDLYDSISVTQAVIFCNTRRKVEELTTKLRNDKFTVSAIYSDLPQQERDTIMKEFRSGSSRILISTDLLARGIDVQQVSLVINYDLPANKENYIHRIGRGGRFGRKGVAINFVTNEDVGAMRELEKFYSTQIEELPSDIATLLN
Briefly: Proteolysis protection of yeast cell lysate proteins by resveratrol (silver staining, mass spectrometry, western blotting). It counts as binding. How it is done:
(§1) FIGS. 1A-1C illustrate the identification of eIF4A as the molecular target of resveratrol. FIG. 1A: Chemical structure of resveratrol. FIG. 1B: Lysate from untreated yeast cells or Hela cell were incubated with resveratrol or vehicle for 1 hr at room temperature, followed by proteolysis, SDS-PAGE, and silver staining. Mass spectrometry identifies the protected protein is eIF4A. FIG. 1C: Western blotting confirms the protection of yeast (TAP-tagged Tifi) eIF4A by resveratrol.
We performed proteolysis on yeast cell lysates that had been incubated with resveratrol or ethanol (vehicle control).
For orientation: A western blot detects proteins with antibodies after separation by electrophoresis.

Assay [2] concerns the target T2, human eIF4A (Homo sapiens, UniProt P60842).
T2 construct: endogenous in cells; host or cells: HeLa cell lysate
The assay is described as follows: Proteolysis protection in human HeLa cell lysate by resveratrol (western blotting). The format is binding. The note with it: 100 μM resveratrol. How it is done:
as §1

Assay [3] deals with eukaryotic translation (rabbit reticulocyte lysate system). Briefly: In vitro translation assay, rabbit reticulocyte lysate system, firefly luciferase mRNA. It counts as biochemical. The note with it: 100 μM resveratrol. How it is done: The rabbit reticulocyte lysate system was treated with different concentration of resveratrol (0, 1, 10, 50, 100, 500 μM), and the translation of firefly luciferase mRNA was measured with Promega luciferase assay.
The in vitor translation assay is performed with the rabbit reticulocyte lysate system. We added different concentrations of resveratrol into the in vitor translation reaction, and used the translation of firefly luciferase mRNA as a readout. […] Translation is reduced by >70% at 100 μM resveratrol, the concentration at which we previously detected eIF4A protection in HeLa cell lysate.

Assay [4] has as its system cap-dependent (eIF4A-requiring) translation of renilla luciferase. The assay is described as follows: Bicistronic dual-luciferase reporter pcDNA/Ren/HCV/FF in HEK 293 cells, Renilla luciferase. It counts as cell-based. The note with it: 0-100 μM, 33 hour after transfection. How it is done: (§2) FIG. 3A: Schematic diagram of the bicistronic dual-luciferase mRNA Ren-HCV-FF. FIG. 3B: Resveratrol inhibits cap-dependent translation initiation of Renilla luciferase but not eIF4A-independent translation of firefly luciferase. HEK 293 cells transfected with plasmid pcDNA/REN/HCV/FF are treated with different concentration of resveratrol (0, 0.1, 1, 10, 50, 100 μM). Translation of reporter genes was measured 33 hour after transfection using the Dual-Glo luciferase assay (Promega) with an Analyst HT plate reader (Molecular Devices).
(§3) One such illustrative assay is shown in Example 1.
Background: In a reporter assay the amount or activity of a reporter protein is the signal.

The test system of assay [5] is HCV IRES mediated (eIF4A-independent) translation of firefly luciferase. Briefly: Bicistronic dual-luciferase reporter pcDNA/Ren/HCV/FF in HEK 293 cells, firefly luciferase. The note with it: 0-100 μM, 33 hour after transfection. It counts as cell-based. How it is done:
as §2, §3

T2 sequence (P60842 whole entry): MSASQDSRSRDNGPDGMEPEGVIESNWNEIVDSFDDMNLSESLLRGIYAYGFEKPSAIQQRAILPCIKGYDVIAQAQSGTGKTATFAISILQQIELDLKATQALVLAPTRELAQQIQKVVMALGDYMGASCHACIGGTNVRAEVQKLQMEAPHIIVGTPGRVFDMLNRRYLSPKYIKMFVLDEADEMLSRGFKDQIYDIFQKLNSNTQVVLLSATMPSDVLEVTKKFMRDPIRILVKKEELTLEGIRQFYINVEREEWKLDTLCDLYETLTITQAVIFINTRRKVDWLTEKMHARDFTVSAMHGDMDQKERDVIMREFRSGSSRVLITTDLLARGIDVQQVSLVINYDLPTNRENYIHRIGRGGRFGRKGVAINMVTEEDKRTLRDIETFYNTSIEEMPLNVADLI

In the case of `Oc1ccc(C=Cc2cc(O)cc(O)c2)cc1` [resveratrol], in assay [1] (yeast cell lysate incubated with resveratrol vs ethanol vehicle), the “eIF4A in protected bands (15 and 25 kDa) after proteolysis, mass spectrometry” value is listed as “enriched in the resveratrol-treated sample”. The “protection of yeast (TAP tagged Tif1) eIF4A, western blotting” value in assay [1] (yeast lysate, proteolysis) is on record as “further confirmed by western blotting”. Besides, in assay [2], the “protected band after proteolysis, confirmed as human eIF4A by western blotting” value is on record as “protected band of similar size was detected”. Besides, in assay [3], the “Translation reduced (firefly luciferase signal)” value is above 70%. Besides, the “expression of renilla luciferase (cap-dependent)” value in assay [4] was “inhibited in a dose-dependent manner”. For the same molecule, the “expression of firefly luciferase (HCV IRES)” value in assay [5] is “unaffected”.
